Target: EGFR^L858R/T790M/C797S kinase (Homo sapiens (Human), UniProt P00533, C797S/L858R/T790M)
Experiment: EGFR^L858R/T790M/C797S kinase inhibitory activity experiment
Type: biochemical
Conditions: in vitro
Procedure: EGFRL^858R/T790M/C797S kinase inhibitory activity experiment: The compounds of the present invention have excellent in-vitro inhibitory activity against EGFR^L858R/T790M/C797S kinase
• Centrifuge (manufacturer: Eppendorf, model: 5430) • Microplate reader (manufacturer: Perkin Elmer, model: Caliper EZ ReaderII) • Echo 550 (manufacturer: Labcyte, model: Echo 550) • Experimental Method • Compound preparation: • A 10 mM storage solution was prepared.
(1) 1×Kinase buffer was prepared.
(2) Preparation of concentration gradient of compound: The tested compound has a test concentration starting from 1 μM, diluted 10 times, with 10 concentrations, and subjected to single-well or multi-well detection. The compound was diluted to a 100% DMSO solution with a final concentration of 100 times in a 384 source plate. […] of the compound at a final concentration of 100 times was transferred to the target plate 384-well-plate using the pipette Echo 550.
(3) A kinase solution with a final concentration of 2.5 times was prepared using 1× Kinase buffer.
(4) 10 μL of the kinase solution with the final concentration of 2.5 times was added to a compound well and a positive control well, respectively; 10 μL of 1×Kinase buffer was added to a negative control well.
(5) Centrifugation was conducted at 1000 rpm for 30 seconds, and the reaction plate was shaken and mixed well, and incubated at a room temperature for 10 minutes.
(6) A mixed solution of ATP with a final concentration of 5/3 times and Kinase substrate 22 was prepared using 1×Kinase buffer.
(7) A mixed solution of 15 μL of ATP with a final concentration of 5/3 times and a substrate was added for initial reaction.
(8) The 384-well-plate was centrifuged at 1000 rpm for 30 seconds, shaken and mixed well, and incubated at a room temperature for 60 minutes.
(9) 30 μL of a termination detection solution was added to stop the kinase reaction. Centrifugation was conducted at 1000 rpm for 30 seconds. Shaking and mixing well were conducted.
(10) The conversion rate was read using Caliper EZ Reader.
where Conversion %_sample is the conversion rate reading of the sample; Conversion %_min: the average value of negative control wells, representing the conversion rate reading of wells without enzyme activity; Conversion %_max: the average value of positive control wells, representing the conversion rate reading of wells without compound inhibition; % Inhibition represents the inhibition rate.
Fitting of Dose-Response Curve
Using the log value of concentration as the X-axis and the percentage inhibition rate as the Y-axis, the dose-response curve was fitted using the log(inhibitor) vs. response —Variable slope of the analysis software GraphPad Prism 5 to obtain the IC50 value of each compound on enzyme activity.

Chain of EGFR^L858R/T790M/C797S kinase (P00533 25-1210 T790M/C797S/L858R): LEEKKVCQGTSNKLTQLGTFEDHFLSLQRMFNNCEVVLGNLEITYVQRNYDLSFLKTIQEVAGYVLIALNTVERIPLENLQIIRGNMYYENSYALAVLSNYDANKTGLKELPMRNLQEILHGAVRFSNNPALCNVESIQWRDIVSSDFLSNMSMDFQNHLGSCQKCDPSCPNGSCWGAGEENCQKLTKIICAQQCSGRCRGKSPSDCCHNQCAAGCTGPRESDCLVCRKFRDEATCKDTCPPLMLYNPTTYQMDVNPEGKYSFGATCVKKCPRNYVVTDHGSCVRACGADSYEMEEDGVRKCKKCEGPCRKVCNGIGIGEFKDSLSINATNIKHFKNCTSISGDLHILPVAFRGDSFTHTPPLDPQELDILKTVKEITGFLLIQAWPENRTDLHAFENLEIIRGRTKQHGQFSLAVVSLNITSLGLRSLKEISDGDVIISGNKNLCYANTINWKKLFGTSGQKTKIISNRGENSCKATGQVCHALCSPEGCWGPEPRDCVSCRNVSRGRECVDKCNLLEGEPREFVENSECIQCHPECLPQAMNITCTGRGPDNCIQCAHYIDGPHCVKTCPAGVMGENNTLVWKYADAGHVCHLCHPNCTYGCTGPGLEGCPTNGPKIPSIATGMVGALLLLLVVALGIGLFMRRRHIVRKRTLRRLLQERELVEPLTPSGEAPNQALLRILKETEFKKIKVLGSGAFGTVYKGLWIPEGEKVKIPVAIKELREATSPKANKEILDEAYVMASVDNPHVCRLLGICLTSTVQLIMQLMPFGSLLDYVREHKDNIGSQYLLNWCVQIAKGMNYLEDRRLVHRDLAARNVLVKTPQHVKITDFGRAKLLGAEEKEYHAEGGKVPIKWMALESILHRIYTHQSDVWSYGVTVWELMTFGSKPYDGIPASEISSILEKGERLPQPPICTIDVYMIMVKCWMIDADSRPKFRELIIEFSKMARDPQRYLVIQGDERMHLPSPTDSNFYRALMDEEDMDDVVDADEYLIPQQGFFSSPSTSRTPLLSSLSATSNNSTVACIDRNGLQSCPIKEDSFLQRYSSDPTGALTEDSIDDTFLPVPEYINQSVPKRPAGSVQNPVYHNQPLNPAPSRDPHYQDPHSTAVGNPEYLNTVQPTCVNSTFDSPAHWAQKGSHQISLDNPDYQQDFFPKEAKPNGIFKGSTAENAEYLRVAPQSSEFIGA

| SMILES | IC50 [nM] |
| --- | --- |
| COc1cc(N2CC3(CCN(C)CC3)C2)c(Cl)cc1Nc1ncc(Cl)c(Nc2ccc(C)c(C)c2P(C)(C)=O)n1 [Compound 34] | 0.84 |
| CCc1cc(Nc2ncc(Cl)c(Nc3cc(C)cc(C)c3P(C)(C)=O)n2)c(OC)cc1N1CCC2(CC1)CC(N(C)C)C2 [Compound 18, (2-((5-Chloro-2-((4-(2-(dimethylamino)-7-azaspiro[3.5]non-7-yl)-5-ethyl-2-methoxyphenyl)amino)pyrimidin-4-yl)amino)-4,6-dimethylphenyl)dimethylphosphine oxide] | 36 |
| COc1cc(N2CC3(CCN(CC(F)F)CC3)C2)c(Cl)cc1Nc1ncc(Cl)c(Nc2cc(C)c(C)cc2P(C)(C)=O)n1 [Compound 42] | 0.76 |
| CCc1cc(Nc2ncc(Cl)c(Nc3ccc(C)c(C)c3P(C)(C)=O)n2)c(OC)cc1N1CCC2(CC1)CN(C(C)=O)C2 [Compound 30, 1-(7-(4-((5-chloro-4-((2-(dimethylphosphoryl)-3,4-dimethylphenyl)amino)pyrimidin-2-yl)amino)-2-ethyl-5-methoxyphenyl)-2,7-diazaspiro[3.5]nonan-2-yl)ethan-1-one] | 6.78 |
| CCc1cc(Nc2ncc(Cl)c(Nc3ccc(C)c(C)c3P(C)(C)=O)n2)c(OC)cc1N1CCC2(CC1)CC(N1CC(C#N)C1)C2 [Compound 49, 1-(7-(4-((5-chloro-4-((2-(dimethylphosphoryl)-3,4-dimethylphenyl)amino)pyrimidin-2-yl)amino)-2-ethyl-5-methoxyphenyl)-7-azaspiro[3.5]nonan-2-yl)azetidine-3-carbonitrile] | 8.23 |
| CCc1cc(Nc2ncc(Cl)c(Nc3cc(C)c(C)cc3P(C)(C)=O)n2)c(OC)cc1N1CCC2(CC1)CN(C)C2 [Compound 20, (2-((5-Chloro-2-((5-ethyl-2-methoxy-4-(2-methyl-2,7-diazaspiro[3.5]non-7-yl)phenyl)amino)pyrimidin-4-yl)amino)-4,5-dimethylphenyl)dimethylphosphine oxide] | 29 |
| CCc1cc(Nc2ncc(Cl)c(Nc3cc(C)c(C)cc3P(C)(C)=O)n2)c(OC)cc1N1CCC(N2CCOCC2)CC1 [Compound 14, (2-((5-chloro-2-((5-ethyl-2-methoxy-4-(4-morpholinopiperidin-1-yl)phenyl)amino)pyrimidin-4-yl)amino)-4,5-dimethylphenyl)dimethylphosphine oxide] | 8.3 |
| CCc1cc(Nc2ncc(Cl)c(Nc3cc(C)c(C)cc3P(C)(C)=O)n2)c(OC)cc1N1CC2(CCC(N(C)C)CC2)C1 [Compound 10, (2-((5-Chloro-2-((4-(7-(dimethylamino)-2-azaspiro[3.5]nonan-2-yl)-5-ethyl-2-methoxypheny 1)amino)pyrimidin-4-yl)amino)-4,5-dimethylphenyl)dimethylphosphine oxide] | 13 |
| COc1cc(N2CC3(CCC(N(C)C)CC3)C2)c(C)cc1Nc1ncc(Cl)c(Nc2ccc(C)c(C)c2P(C)(C)=O)n1 [Compound 3, (6-((5-Chloro-2-((4-(7-(dimethylamino)-2-azaspiro[3.5]nonan-2-yl)-2-methoxy-5-methylphenyl)amino)pyrimidin-4-yl)amino)-2,3-dimethylphenyl)dimethylphosphine oxide] | 21 |
| CCc1cc(Nc2ncc(Cl)c(Nc3cc(Cl)c(Cl)cc3P(C)(C)=O)n2)c(OC)cc1N1CC2(CCC(CC#N)CC2)C1 [Compound 39, 2-(2-(4-((5-chloro-4-((4,5-dichloro-2-(dimethylphosphoryl)phenyl)amino)pyrimidin-2-yl)amino)-2-ethyl-5-methoxyphenyl)-2-azaspiro[3.5]nonan-7-yl)acetonitrile] | 12.1 |
| CCc1cc(Nc2ncc(Cl)c(Nc3ccc(C)c(C)c3P(C)(C)=O)n2)c(OC)cc1N1CC2(CCC(CC#N)CC2)C1 [Compound 29, 2-(2-(4-((5-chloro-4-((2-(dimethylphosphoryl)-3,4-dimethylphenyl)amino)pyrimidin-2-yl)amino)-2-ethyl-5-methoxyphenyl)-2-azaspiro[3.5]nonane-7-yl)acetonitrile] | 18.1 |
| COc1cc(N2CC3(CCN(C)CC3)C2)c(Cl)cc1Nc1ncc(Cl)c(Nc2cc(C)c(C)cc2P(C)(C)=O)n1 [Compound 40] | 0.85 |
| CCN1CCC2(CC1)CN(c1cc(OC)c(Nc3ncc(Cl)c(Nc4ccc(C)c(C)c4P(C)(C)=O)n3)cc1Cl)C2 [Compound 35] | 0.68 |
| CCc1cc(Nc2ncc(Cl)c(Nc3cc(C)c(C)cc3P(C)(C)=O)n2)c(OC)cc1N1CC2(CCN(C)CC2)C1 [Compound 44] | 0.48 |
| CCc1cc(Nc2ncc(Cl)c(Nc3ccc(C)c(C)c3P(C)(C)=O)n2)c(OC)cc1N1CCC2(CC1)CN(COC)C2 [Compound 31] | 4.19 |
| COc1cc(N2CCC3(CC2)CC(N(C)C)C3)ccc1Nc1ncc(Cl)c(Nc2cc(C)c(C)cc2P(C)(C)=O)n1 [Compound 1, (6-((5-Chloro-2-((4-(2-(dimethylamino)-7-azaspiro[3.5]nonan-7-yl)-2-methoxyphenyl)amino)pyrimidin-4-yl)amino)-3,4-dimethylphenyl)dimethylphosphine oxide] | 27 |
| COc1cc(N2CCC3(CCN(C)CC3)CC2)ccc1Nc1ncc(Cl)c(Nc2ccc(C)c(C)c2P(C)(C)=O)n1 [Compound 4, (6-((5-Chloro-2-((2-methoxy-4-(9-methyl-3,9-diazaspiro[5.5]undecan-3-yl)phenyl)amino)pyrimidin-4-yl)amino)-2,3-dimethylphenyl)dimethylphosphine oxide] | 16 |
| COc1cc(N2CC3(CCN(C4CC4)CC3)C2)c(Cl)cc1Nc1ncc(Cl)c(Nc2cc(C)c(C)cc2P(C)(C)=O)n1 [Compound 41] | 0.89 |
| CCc1cc(Nc2ncc(Cl)c(Nc3cc(C)c(C)cc3P(C)(C)=O)n2)c(OC)cc1N1CCC(N2CCN(C)CC2)CC1 [Compound 11, (2-((5-chloro-2-((5-ethyl-2-methoxy-4-(4-(4-methylpiperazin-1-yl)piperidin-1-yl)phenyl)amino)pyrimidin-4-yl)amino)-4,5-dimethylphenyl)dimethylphosphine oxide] | 5 |
| CCc1cc(Nc2ncc(Cl)c(Nc3cc(C)c(C)cc3P(C)(C)=O)n2)c(OC)cc1N1CCC(N2CC(N(C)C)C2)CC1 [Compound 15, (2-((5-chloro-2-((4-(4-(3-(dimethylamino)azetidin-1-yl)piperidine-1-yl)-5-ethyl-2-methoxyphenyl)amino)pyrimidin-4-yl)amino)-4,5-dimethylphenyl)dimethylphosphine oxide] | 3.8 |
| COc1cc(N2CC3(CCC(N(C)C)CC3)C2)ccc1Nc1ncc(Cl)c(Nc2ccc(C)c(C)c2P(C)(C)=O)n1 [Compound 2, (6-((5-Chloro-2-((4-(7-(dimethylamino)-2-azaspiro[3.5]nonane-2-yl)-2-methoxyphenyl)amino)pyrimidin-4-yl)amino)-2,3-dimethylphenyl)dimethylphosphine oxide] | 89 |
| CCc1cc(Nc2ncc(Cl)c(Nc3ccc(C)c(C)c3P(C)(C)=O)n2)c(OC)cc1N1CC2(CCN(CC)CC2)C1 [Compound 27] | 0.81 |
| COc1cc(N2CC3(CCC(CC#N)CC3)C2)c(Cl)cc1Nc1ncc(Cl)c(Nc2cc(C)c(C)cc2P(C)(C)=O)n1 [Compound 43, 2-(2-(2-chloro-4-((5-chloro-4-((2-(dimethylphosphoryl)-4,5-dimethylphenyl)amino)pyrimidin-2-yl)amino)-5-methoxyphenyl)-2-azaspiro[3.5]nonan-7-yl)acetonitrile] | 25.2 |
| COc1cc(N2CCC3(CC2)CC(N(C)C)C3)c(C)cc1Nc1ncc(Cl)c(Nc2cc(C)c(C)cc2P(C)(C)=O)n1 [Compound 9, (2-((5-Chloro-2-((4-(2-(dimethylamino)-7-azaspiro[3.5]nonan-7-yl)-2-methoxy-5-methylphenyl)amino)pyrimidin-4-yl)amino)-4,5-dimethylphenyl)dimethylphosphine oxide] | 7 |
| CCc1cc(Nc2ncc(Cl)c(Nc3cc(Cl)c(Cl)cc3P(C)(C)=O)n2)c(OC)cc1N1CC2(CCN(C3CC3)CC2)C1 [Compound 37] | 0.49 |
| CCN1CCC2(CC1)CN(c1cc(OC)c(Nc3ncc(Cl)c(Nc4ccc(C)c(C)c4P(C)(C)=O)n3)cc1C)C2 [Compound 33] | 0.73 |
| COc1cc(N2CCC(N3CCN(C)CC3)CC2)c(C)cc1Nc1ncc(Cl)c(Nc2ccc(C)c(C)c2P(C)(C)=O)n1 [BD-2, (6-((5-Chloro-2-((2-methoxy-5-methyl-4-(4-(4-methylpiperazin-1-yl)piperidin-1-yl)phenyl)amino)pyrimidin-4-yl)amino)-2,3-dimethylphenyl)dimethylphosphine oxide] | 5 |
| CCc1cc(Nc2ncc(Cl)c(Nc3cc(C)c(C)cc3P(C)(C)=O)n2)c(OC)cc1N1CC2(CCN(CC(F)F)CC2)C1 [Compound 45] | 0.74 |
